Source: ChEMBL document CHEMBL4321813, “Discovery of GSK3527497: A Candidate for the Inhibition of Transient Receptor Potential Vanilloid-4 (TRPV4)” (J Med Chem, 2019)
pIC50: −log10 of the molar value. Values after ≈ are worked out from the molar mass of the structure shown.

Tests used:
[1] = target: T1, Transient receptor potential cation channel subfamily V member 4 (Homo sapiens, UniProt Q9HBA0); assay: Antagonist activity at BacMam virus expressing human TRPV4 transduced in BHK/AC9 or HEK MSR2 cells assessed as inhibition of GSK634775-induced Ca2+ flux preincubated for 10 mins followed by agonist addition by Fluo-4 AM dye based FLIPR assay; format: cell-based
T1 sequence (Q9HBA0 whole entry): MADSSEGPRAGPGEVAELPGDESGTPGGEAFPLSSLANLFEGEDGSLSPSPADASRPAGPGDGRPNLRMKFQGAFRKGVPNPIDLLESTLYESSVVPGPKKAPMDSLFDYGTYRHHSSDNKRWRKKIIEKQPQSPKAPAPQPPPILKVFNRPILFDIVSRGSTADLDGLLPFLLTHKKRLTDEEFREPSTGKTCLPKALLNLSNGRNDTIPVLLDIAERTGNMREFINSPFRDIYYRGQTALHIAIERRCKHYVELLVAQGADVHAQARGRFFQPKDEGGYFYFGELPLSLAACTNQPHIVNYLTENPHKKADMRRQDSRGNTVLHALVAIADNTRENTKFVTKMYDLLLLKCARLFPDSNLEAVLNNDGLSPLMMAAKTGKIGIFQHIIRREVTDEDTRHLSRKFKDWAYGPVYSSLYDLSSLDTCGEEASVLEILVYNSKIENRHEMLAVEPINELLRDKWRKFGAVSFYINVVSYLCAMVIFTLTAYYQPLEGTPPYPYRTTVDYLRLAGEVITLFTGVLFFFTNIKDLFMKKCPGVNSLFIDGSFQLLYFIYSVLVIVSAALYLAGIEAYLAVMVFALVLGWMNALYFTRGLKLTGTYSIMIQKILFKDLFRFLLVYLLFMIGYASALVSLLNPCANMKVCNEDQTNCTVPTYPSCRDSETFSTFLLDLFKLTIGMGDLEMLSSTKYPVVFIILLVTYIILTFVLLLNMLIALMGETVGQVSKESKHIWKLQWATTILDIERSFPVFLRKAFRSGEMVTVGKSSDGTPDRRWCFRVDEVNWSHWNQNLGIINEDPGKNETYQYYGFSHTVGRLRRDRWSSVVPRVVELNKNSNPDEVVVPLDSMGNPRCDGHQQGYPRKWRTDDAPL

[2] = Lipophilicity, log D of the compound at pH 7.4 by chromatographic method; format: physicochemical; settings: buffer
[3] = Solubility of the compound in FaSSIF measured after 4 hrs; format: physicochemical
[4] = MRT in Sprague-Dawley rat at 1 mg/kg, iv administered as 30 mins infusion by HPLC-MS/MS analysis; format: ADME, organism-based; settings: in vivo
[5] = Clearance in Sprague-Dawley rat at 1 mg/kg, iv administered as 30 mins infusion by HPLC-MS/MS analysis; format: ADME, organism-based; settings: in vivo
[6] = Volume of distribution at steady state in Sprague-Dawley rat at 1 mg/kg, iv administered as 30 mins infusion or 1 to 2 mg/kg, po by HPLC-MS/MS analysis; format: ADME, organism-based; settings: in vivo, read-out: Vdss
[7] = Oral bioavailability in Sprague-Dawley rat at 1 to 2 mg/kg by HPLC-MS/MS analysis; format: ADME, organism-based; settings: in vivo
[8] = Protein binding in rat plasma assessed as unbound fraction; format: ADME, cell-free
[9] = Unbound clearance in Sprague-Dawley rat at 1 mg/kg, iv administered as 30 mins infusion by HPLC-MS/MS analysis; format: ADME, organism-based; settings: in vivo, 0.5 h
[10] = Unbound volume of distribution at steady state in Sprague-Dawley rat at 1 mg/kg, iv administered as 30 mins infusion or 1 to 2 mg/kg, po by HPLC-MS/MS analysis; format: ADME, organism-based; settings: in vivo, 0.5 h
[11] = Dose normalized AUC in Sprague-Dawley rat at 100 mg/kg, po using crystalline solid form of sample by HPLC-MS/MS analysis; format: ADME, organism-based; settings: in vivo
[12] = Oral bioavailability in Sprague-Dawley rat at 100 mg/kg using crystalline solid form of sample by HPLC-MS/MS analysis; format: ADME, organism-based; settings: in vivo
[13] = Dose normalized AUC in Sprague-Dawley rat at 100 mg/kg, po using amorphous spray dried dispersion sample by HPLC-MS/MS analysis; format: ADME, organism-based; settings: in vivo
[14] = Oral bioavailability in Sprague-Dawley rat at 100 mg/kg using amorphous spray dried dispersion sample by HPLC-MS/MS analysis; format: ADME, organism-based; settings: in vivo
[15] = tested on: Rattus norvegicus; assay: Ratio of dose normalized AUC in Sprague-Dawley rat at 100 mg/kg, po using amorphous spray dried dispersion sample to dose normalized AUC in Sprague-Dawley rat at 100 mg/kg, po using crystalline solid form of sample; format: ADME, organism-based; settings: in vivo
[16] = Dose normalized AUC in Sprague-Dawley rat at 1 mg/kg, po by HPLC-MS/MS analysis; format: ADME, organism-based; settings: in vivo
[17] = Ratio of unbound clearance in Sprague-Dawley rat at 1 mg/kg, iv administered as 30 mins infusion to unbound clearance in dog; format: ADME, organism-based; settings: in vivo, 0.5 h
[18] = Drug metabolism in rat hepatocytes assessed as GSH-mediated sulfonamide cleavage by measuring 2-amino-5-[[2-(carboxymethylamino)-1-[[2-cyano-4-(trifluoromethyl)phenyl]sulfanylmethyl]-2-oxo-ethyl]amino]-5-oxo-pentanoic acid formation by LC-MS/MS analysis; format: ADME, cell-based, Hepatocyte
[19] = Drug metabolism in rat hepatocytes assessed as rearomatization/conjugation by measuring metabolite formation by LC-MS/MS analysis; format: ADME, cell-based, Hepatocyte
[20] = Drug metabolism in rat hepatocytes assessed as oxidation of arene oxide metabolite by measuring 2-[(3R,4S)-4-(4-cyano-3-fluoro-phenoxy)-3-hydroxy-3-(hydroxymethyl)pyrrolidin-1-yl]sulfonyl-3,4-dihydroxy-5-(trifluoromethyl)benzonitrile formation by LC-MS/MS analysis; format: ADME, cell-based, Hepatocyte
[21] = Ratio of Cmax to Cmin in human; format: ADME
[22] = Mean residence time in dog; format: ADME, Canis lupus familiaris; settings: in vivo
[23] = Clearance in dog; format: ADME, Canis lupus familiaris; settings: in vivo
[24] = target: Voltage-gated inwardly rectifying potassium channel KCNH2 (Homo sapiens, UniProt Q12809); assay: Inhibition of human ERG by electrophysiology
Sequence of Voltage-gated inwardly rectifying potassium channel KCNH2 (Q12809 whole entry): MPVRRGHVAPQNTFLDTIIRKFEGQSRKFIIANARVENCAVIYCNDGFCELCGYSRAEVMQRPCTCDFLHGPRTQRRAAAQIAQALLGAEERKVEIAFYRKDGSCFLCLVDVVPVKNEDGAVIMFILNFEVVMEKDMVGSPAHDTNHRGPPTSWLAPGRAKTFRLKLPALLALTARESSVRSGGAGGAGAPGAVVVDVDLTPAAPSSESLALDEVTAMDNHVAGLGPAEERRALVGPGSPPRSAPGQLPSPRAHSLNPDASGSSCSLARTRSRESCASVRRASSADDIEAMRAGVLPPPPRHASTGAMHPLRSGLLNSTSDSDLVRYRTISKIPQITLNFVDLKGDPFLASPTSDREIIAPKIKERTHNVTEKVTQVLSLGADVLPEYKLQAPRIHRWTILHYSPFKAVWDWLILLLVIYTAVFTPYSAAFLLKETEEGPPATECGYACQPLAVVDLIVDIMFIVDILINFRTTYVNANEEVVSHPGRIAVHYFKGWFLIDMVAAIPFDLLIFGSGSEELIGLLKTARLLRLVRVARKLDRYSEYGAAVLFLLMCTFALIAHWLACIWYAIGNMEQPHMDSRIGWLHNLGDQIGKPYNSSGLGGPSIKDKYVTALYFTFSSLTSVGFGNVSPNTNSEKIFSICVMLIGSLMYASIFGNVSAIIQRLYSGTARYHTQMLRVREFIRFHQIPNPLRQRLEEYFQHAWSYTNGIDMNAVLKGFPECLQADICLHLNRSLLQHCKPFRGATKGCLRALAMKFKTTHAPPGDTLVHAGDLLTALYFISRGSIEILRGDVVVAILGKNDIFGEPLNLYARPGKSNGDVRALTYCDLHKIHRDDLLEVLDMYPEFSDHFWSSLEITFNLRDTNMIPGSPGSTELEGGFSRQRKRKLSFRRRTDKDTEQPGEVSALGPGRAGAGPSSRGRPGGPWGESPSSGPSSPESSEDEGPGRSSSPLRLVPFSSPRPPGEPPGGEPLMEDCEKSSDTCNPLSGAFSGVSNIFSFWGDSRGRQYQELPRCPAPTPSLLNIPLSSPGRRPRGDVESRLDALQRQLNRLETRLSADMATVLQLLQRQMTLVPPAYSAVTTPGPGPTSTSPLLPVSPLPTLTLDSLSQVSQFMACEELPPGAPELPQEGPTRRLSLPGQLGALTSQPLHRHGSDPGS

[25] = target: Cytochrome P450 3A4 (Homo sapiens, UniProt P08684); assay: Inhibition of CYP3A4 (unknown origin); format: ADME
Sequence of Cytochrome P450 3A4 (P08684 whole entry): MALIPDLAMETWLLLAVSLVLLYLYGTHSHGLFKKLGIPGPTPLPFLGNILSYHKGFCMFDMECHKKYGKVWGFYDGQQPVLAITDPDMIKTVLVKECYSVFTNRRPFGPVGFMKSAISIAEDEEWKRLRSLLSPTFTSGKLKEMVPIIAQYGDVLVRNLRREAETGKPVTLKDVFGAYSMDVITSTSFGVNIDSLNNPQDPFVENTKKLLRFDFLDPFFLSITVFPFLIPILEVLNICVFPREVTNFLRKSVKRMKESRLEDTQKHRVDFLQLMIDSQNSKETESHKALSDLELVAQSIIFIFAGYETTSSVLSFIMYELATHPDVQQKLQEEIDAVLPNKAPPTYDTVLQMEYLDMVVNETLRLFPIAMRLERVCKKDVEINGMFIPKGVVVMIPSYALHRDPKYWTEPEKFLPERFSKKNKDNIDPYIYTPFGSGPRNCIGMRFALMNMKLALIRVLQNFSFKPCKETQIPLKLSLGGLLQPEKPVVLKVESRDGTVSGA

[26] = Apparent permeability in dog MDCK cells; format: ADME, cell-based, Canis lupus familiaris
[27] = Dose normalized AUC in Sprague-Dawley rat at 100 mg/kg, po by HPLC-MS/MS analysis; format: ADME, organism-based; settings: in vivo
[28] = Oral bioavailability in Sprague-Dawley rat at 100 mg/kg by HPLC-MS/MS analysis; format: ADME, organism-based; settings: in vivo
[29] = Dose normalized AUC in Sprague-Dawley rat at 2 mg/kg, po by HPLC-MS/MS analysis; format: ADME, organism-based; settings: in vivo
[30] = Volume of distribution at steady state in dog; format: ADME, Canis lupus familiaris; settings: in vivo, read-out: Vdss
[31] = Oral bioavailability in dog; format: ADME, organism-based, Canis lupus familiaris; settings: in vivo
[32] = Protein binding in dog plasma assessed as unbound fraction; format: ADME, cell-free, Canis lupus familiaris
[33] = Unbound clearance in dog; format: ADME, Canis lupus familiaris; settings: in vivo
[34] = Unbound volume of distribution at steady state in dog; format: ADME, Canis lupus familiaris; settings: in vivo
[35] = target: T1, Transient receptor potential cation channel subfamily V member 4; assay: Antagonist activity at human TRPV4
[36] = Oral bioavailability in Sprague-Dawley rat at 1 mg/kg by HPLC-MS/MS analysis; format: ADME, organism-based; settings: in vivo
[37] = Unbound AUC in human; format: ADME

Row | Compound | pIC50 [1] | chromatographic logD [2] | solubility at 4 h [3] [µg/mL] | MRT [4] [h] | clearance [5] [mL/min/kg] | Vd [6] [L/kg] | bioavailability [7] [%] | fraction unbound [8] | CL free [9] [mL/min/kg] | Vduss [10] [L/kg] | other results
1 | N#Cc1ccc(O[C@H]2CN(S(=O)(=O)c3ccc(Cl)cc3Cl)CC2(O)CO)cc1F (single isomer, unassigned) | 7.48 | 4.9 | 88 (≈ 191 µM) | 4.8 | 54 | 13 | 100 | 0.04 | 1350 | 330 | 
2 | N#Cc1ccc(O[C@H]2CN(S(=O)(=O)c3ccccc3C#N)C[C@@]2(O)CO)cc1F | 8.42 | 3.4 | 20 (≈ 47.9 µM) | 0.4 | 39 | 0.9 | 32 | 0.197 | 200 | 4.6 | 
3 | N#Cc1ccc(O[C@H]2CN(S(=O)(=O)c3ccc(Cl)cn3)C[C@@]2(O)CN)cc1F | 7.92 | 2.5 | > 1000 | 2.5 | 45 | 6.7 | 26 | 0.14 | 320 | 47 | MRT [22]: 17 h; clearance [23]: 5.9 mL/min/kg; pIC50 [24]: 4.70; pIC50 [25]: 4.92; Papp [26]: 0.08 ×10⁻⁶ cm/s; AUC/dose [27]: 0.31 kg·h/L; bioavailability [28]: 87%; AUC/dose [29]: 0.092 kg·h/L; Vd [30]: 5.9 L/kg; bioavailability [31]: 84%; fraction unbound [32]: 0.32; CL free [33]: 18 mL/min/kg; Vduss [34]: 18 L/kg; Ratio [17]: 18
4 | CC(C)Nc1nc2c(C(=O)N(C)C)c(Cl)c(Cl)cc2n1C1CCN(c2ccc(C(C)(C)C#N)cc2)CC1 |  |  |  |  |  |  |  |  |  |  | pIC50 [35]: 7.49
5 | N#Cc1ccc(S(=O)(=O)[C@H]2CN(S(=O)(=O)c3ccc(Cl)cc3Cl)C[C@@]2(O)CO)cc1 | 8.10 | 4.5 | 270 (≈ 549 µM) |  |  |  | 100 | 0.027 | 925 | 85 | 
6 | N#Cc1ccc(O[C@H]2CN(S(=O)(=O)c3ccc(Cl)cc3Cl)C[C@@]2(O)CN)cc1F (racemic) | 8.46 | 4 | 78 (≈ 169 µM) | 3.2 | 40 | 7.7 | 24 | 0.036 | 1100 | 210 | pIC50 [25]: 5.80; fAUC [37]: 170 ng·h/mL
7 | N#Cc1ccc(O[C@H]2CN(S(=O)(=O)c3ccc(Cl)cc3Cl)C[C@@]2(O)CO)cc1F |  |  | 19 (≈ 41.2 µM) |  |  | 3.2 |  |  |  | 54 | Ratio [21]: 15; fAUC [37]: 240 ng·h/mL
8 | N#Cc1ccc(S(=O)(=O)[C@H]2CN(S(=O)(=O)c3ccc(Cl)cn3)C[C@@]2(O)CO)cc1 | 5.42 | 3.1 | > 1000 |  |  |  |  |  |  |  | 

Second part, led by results:

Row | pIC50 [1] | chromatographic logD [2] | solubility at 4 h [3] [µg/mL] | MRT [4] [h] | clearance [5] [mL/min/kg] | Vd [6] [L/kg] | bioavailability [7] [%] | fraction unbound [8] | CL free [9] [mL/min/kg] | Vduss [10] [L/kg] | Compound | other results
9 | 7.00 | 4.5 | 5 (≈ 10.9 µM) | 2 | 50 | 5.9 | 100 | 0.033 | 1500 | 180 | N#Cc1ccc(O[C@H]2CN(S(=O)(=O)c3ccc(C(F)(F)F)cc3)C[C@@]2(O)CO)cc1F | 
10 |  |  | 25 (≈ 51.5 µM) |  |  | 3.6 |  |  |  | 73 | N#Cc1ccc(O[C@H]2CN(S(=O)(=O)c3ccc(C(F)(F)F)cc3C#N)C[C@@]2(O)CO)cc1F | AUC/dose [11]: 0.0021 kg·h/L; F [12]: 1%; AUC/dose [13]: 0.038 kg·h/L; bioavailability [14]: 18%; Ratio AUC [15]: 18; AUC/dose [16]: 0.148 kg·h/L; Ratio [17]: 22; Drug metabolism [18]: Metabolite_Detected; Drug metabolism [19]: Metabolite_Detected; Drug metabolism [20]: Metabolite_Detected; Ratio [21]: 30
11 | 6.76 | 4.2 | 98 (≈ 212 µM) | 2.3 | 31 | 4.1 | 100 | 0.147 | 210 | 28 | N#Cc1ccc(O[C@H]2CN(S(=O)(=O)c3ccc(C(F)(F)F)nc3)C[C@@]2(O)CO)cc1F | Ratio [17]: 13
12 | 6.72 | 3.5 | 130 (≈ 304 µM) | 3.3 |  |  |  |  | 150 |  | N#Cc1ccc(O[C@H]2CN(S(=O)(=O)c3ccc(Cl)cn3)C[C@]2(O)CO)cc1F | 
13 | 7.47 | 3.4 | 26 (≈ 60.8 µM) | 1.2 | 30 | 2.2 | 100 | 0.18 | 170 | 12 | N#Cc1ccc(O[C@H]2CN(S(=O)(=O)c3ccc(Cl)cn3)C[C@@]2(O)CO)cc1F | MRT [22]: 7.8 h; clearance [23]: 4.1 mL/min/kg; AUC/dose [11]: 0.043 kg·h/L; bioavailability ([12]; Sprague-Dawley): 7%; AUC/dose [13]: 0.5 kg·h/L; bioavailability [14]: 79%; AUC/dose [16]: 0.63 kg·h/L; bioavailability [36]: 100%; Papp [26]: 0.22 ×10⁻⁶ cm/s; Vd [30]: 1.9 L/kg; bioavailability [31]: 100%; fraction unbound [32]: 0.34; CL free [33]: 12 mL/min/kg; Vduss [34]: 5.5 L/kg; Ratio [17]: 14
14 | 7.28 | 4.1 | 44 (≈ 103 µM) | 1.9 | 54 | 6 | 83 | 0.035 | 1540 | 170 | N#Cc1ccc(O[C@H]2CN(S(=O)(=O)c3ccc(Cl)cc3)C[C@@]2(O)CO)cc1F | 
